# Source: ChEMBL document CHEMBL1139664, “Identification of a novel series of tetrahydrodibenzazocines as inhibitors of 17beta-hydroxysteroid dehydrogenase type 3” (Bioorg Med Chem Lett, 2006)
# How the values were obtained:
# [1] = molecular target: T1, 17-beta-hydroxysteroid dehydrogenase type 3 (Homo sapiens, UniProt P37058); test: Inhibition of 17beta-HSD3 by SEAP assay
# T1 sequence (P37058 whole entry): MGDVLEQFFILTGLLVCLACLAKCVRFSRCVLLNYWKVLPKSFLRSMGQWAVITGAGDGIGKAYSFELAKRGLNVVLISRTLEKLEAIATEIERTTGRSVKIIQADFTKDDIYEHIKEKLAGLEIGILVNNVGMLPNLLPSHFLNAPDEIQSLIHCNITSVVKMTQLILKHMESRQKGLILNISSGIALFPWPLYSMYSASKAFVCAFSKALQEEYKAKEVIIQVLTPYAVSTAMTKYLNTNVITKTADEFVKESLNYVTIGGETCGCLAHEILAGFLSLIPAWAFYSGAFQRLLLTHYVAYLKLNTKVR
# [2] = molecular target: T1, 17-beta-hydroxysteroid dehydrogenase type 3; test: Inhibition of 17beta-HSD3
# [3] = test system: Liver microsomes; test: Stability in human liver microsome at 10 uM; format: ADME
IC50 [1] [nM],IC50 [2] [nM],Stability [3] [nmol/mg/min],Compound
> 10000,2060,–,COc1ccc2c(c1)SCc1ccccc1CN2C(C)=O
260,160,–,CC(=O)N1Cc2ccc(NC(=O)c3ccccc3)cc2CCc2ccccc21
2980,> 1000,–,CC(=O)N1Cc2ccc(C(N)=O)cc2CCc2ccccc21
4,8,–,CC(=O)N1Cc2ccc(NCc3ccccc3)cc2CCc2ccccc21
170,30,–,CC(=O)N1Cc2ccccc2CSc2ccc(Cl)cc21
290,90,–,CC(=O)N1Cc2ccccc2CSc2cc(F)ccc21
32,9,–,CC(=O)N1Cc2cc(Br)ccc2CCc2ccccc21
130,10,–,CC(=O)N1Cc2ccccc2CSc2cc(Cl)c(Cl)cc21
120,250,–,CC(=O)N1Cc2ccccc2CSc2cc(Br)ccc21
19,3,–,CC(=O)N1Cc2cc(-c3ccc(C#N)cc3)ccc2CCc2cc(Cl)ccc21
320,400,–,CC(=O)N1Cc2ccccc2CSc2ccccc21
870,1000,–,CC(=O)N1Cc2ccccc2CSc2cc(C)ccc21
182,239,–,CC(=O)N1Cc2cc(-c3ccccc3CN)ccc2CCc2cc(Cl)ccc21
1,0.7,0.4,COC(=O)c1ccccc1-c1ccc2c(c1)CN(C(C)=O)c1ccc(Br)cc1CC2
2200,> 1000,–,CCN1Cc2ccc(Br)cc2CCc2ccccc21
36,7,–,CC(=O)N1Cc2ccc(Br)cc2CCc2ccccc21
930,280,–,NC(=O)N1Cc2ccc(Br)cc2CCc2ccccc21
25,25,–,CNC(=O)c1ccccc1-c1ccc2c(c1)CN(C(C)=O)c1ccc(Cl)cc1CC2
15,3,–,CC(=O)N1Cc2cc(-c3cccc(C#N)c3)ccc2CCc2cc(Cl)ccc21
–,11500,–,CC(=O)N1Cc2ccccc2CSc2cccc(Cl)c21
–,2810,–,CC(=O)N1Cc2ccccc2CSc2ccc(C(F)(F)F)cc21
18,4,–,CC(=O)N1Cc2cc(-c3ccccc3)ccc2CCc2cc(Cl)ccc21
1750,320,–,O=C(C1CC1)N1Cc2ccc(Br)cc2CCc2ccccc21

IC50 [1] [nM],IC50 [2] [nM],Stability [3] [nmol/mg/min],Compound
–,> 10000,–,CC(=O)N1Cc2ccccc2CSc2cc(S(C)(=O)=O)ccc21
490,490,–,CC(=O)N1Cc2ccc(N)cc2CCc2ccccc21
62,5,–,CC(=O)N1Cc2cc(-c3ccccc3C#N)ccc2CCc2cc(Cl)ccc21
1300,760,–,CC(=O)N1Cc2ccccc2CSc2c1ccc(Cl)c2Cl
0.5,–,0.9,COC(=O)c1ccccc1-c1ccc2c(c1)CN(C(C)=O)c1ccc(Cl)cc1CC2
130,50,–,CC(=O)N1Cc2ccccc2CCc2ccc(Cl)cc21
48,3,–,COc1ccc(-c2ccc3c(c2)CN(C(C)=O)c2ccc(Cl)cc2CC3)cc1
53,8,–,COc1cccc(-c2ccc3c(c2)CN(C(C)=O)c2ccc(Cl)cc2CC3)c1
5,2,–,COc1ccccc1-c1ccc2c(c1)CN(C(C)=O)c1ccc(Cl)cc1CC2
0.5,–,–,CC(=O)c1ccccc1-c1ccc2c(c1)CN(C(C)=O)c1ccc(Cl)cc1CC2
2,0.9,–,CC(=O)N1Cc2cc(-c3ccccc3CO)ccc2CCc2cc(Cl)ccc21
4,–,–,CC(=O)N1Cc2cc(-c3ccccc3)ccc2CCc2ccccc21
160,100,–,CC(=O)N1Cc2ccccc2CSc2cc(Cl)ccc21
220,90,–,CC(=O)N1Cc2ccccc2CCc2ccccc21
–,2970,–,CC(=O)N1Cc2ccccc2COc2ccccc21
–,4860,–,CC(=O)N1Cc2ccccc2CSc2cc(O)ccc21
> 10000,4740,–,CC(=O)N1Cc2ccccc2CNc2ccccc21
9,2,–,CC(=O)N1Cc2cc(-c3ccccc3NS(C)(=O)=O)ccc2CCc2cc(Cl)ccc21
190,140,–,CC(=O)N1Cc2cc(-c3cccc(NS(C)(=O)=O)c3)ccc2CCc2cc(Cl)ccc21
630,70,–,CC(=O)N1Cc2ccccc2CCc2cc(Cl)ccc21
2,1.4,–,COC(=O)c1cccc(-c2ccc3c(c2)CN(C(C)=O)c2ccc(Cl)cc2CC3)c1
180,290,–,CC(=O)N1Cc2cc(-c3cccc(CN)c3)ccc2CCc2cc(Cl)ccc21
500,240,–,CC(=O)N1Cc2ccccc2/C=C\c2cc(Cl)ccc21
